Legend:
LEF-1 DBD = assay: footprint; settings: 10 mM Hepes pH 7.5, 100 mM KCl
TFIIIA = assay: footprint; settings: DNase I; binding inhibited >90% by 5 nM polyamide ImPyPyPy-γ-ImPyPyPy-β-Dp
[1] = biological target: 5′-AGGTCT-3′ adjacent to the TATA box of the CMV MIEP; assay: Binding to the CMV MIEP next to the TATA element; parameters: species or system human cytomegalovirus; settings: read-out: apparent dissociation constant
Excerpt: (§1) This method is a useful general approach for modulation of gene expression. For example, specific polyamides have been designed and synthesized that bind to double stranded DNA adjacent to the TATA element of the human cytomegalovirus major immediate early promoter (CMV MIEP). Polyamide CMV-1, ImImPyPy-γ-ImPyPyPy-β-Dp, binds the identified target sequence 5′-AGGTCT-3′, where the last T of this sequence is the 5′ T of the TATA element.

[2] = system: TBP binding and basal transcription at the CMV MIEP; assay: TBP binding and basal transcription, CMV MIEP; type: biochemical, human cytomegalovirus
Excerpt: as §1

[3] = system: 5′-WGWWWCW-3′ target sequence; settings: hairpin conformation; Trauger et al. 1996; cited from earlier work
[4] = biological target: 5′AGAATGA-3′ in the human Her-2/neu promoter; assay: Binding downstream of the Her-2/neu TATA element; settings: read-out: apparent dissociation constant
Excerpt: (§2) In another example, a polyamide was designed to bind immediately downstream of the TATA element found in the human Her-2/neu breast cancer oncogene promoter. […] Her-2/neu is recognized to be over-expressed in several cancers, including human gynecologic adenocarcinomas, including those of the ovary, endometrium, breast, fallopian tube and cervix (Cirisano, F. D., & Karlan, B. Y., J. Soc. Gynecol. Investig. 3 99-105 (1996)).

[5] = system: TBP binding and transcription at the Her-2/neu promoter; assay: TBP binding and transcription, Her-2/neu promoter; type: biochemical, human
Excerpt: as §2

5′-TGTTACA-3′ = assay: Quantitative DNase I footprint titration, pJT2B2 fragment; type: binding
TBP (rhTBP) = TBP (rhTBP) (Homo sapiens, UniProt P20226 P20226:1-339); assay: EMSA; not inhibited by HIV-1 polyamide; settings: tags: Promega; label: 32P
HIV-1 TATA element = assay: TBP binding to the HIV-1 TATA element
Procedure: TBP binds the HIV-1 TATA element with a Kd of ˜1-3 nM.

Question: For HIV-1 enhancer LEF-1 site L1, which Kd (LEF-1 DBD; 1 mM MgCl2, 1 mM DTT, 1.5 nM stated in p144) is on record?
Answer: Its Kd is 1.4 nM.

Question: Which Kd (TFIIIA) does the source give for 5S RNA gene internal control region here?
Answer: The Kd was 1 nM.

Question: Which results are given for ImImPyPy-γ-ImPyPyPy-β-Dp [CMV-1]?
Answer: Kd [1]: 1 nM; inhibition of TBP binding and basal transcription [2]: effective inhibitor

Question: For “ImPyPyPyPy-γ-ImPyPyPyPy-β-Dp [polyamide 3]”, which “affinity for seven base pair target sequence” value [3] is on record?
Answer: Its value is “subnanomolar”.

Question: For HIV-1 LEF-1 site L3, which Kd (LEF-1 DBD; 1 mM MgCl2) is on record?
Answer: The Kd was 4.9 nM.

Question: Which Kd [4] does the source give for ImPy-β-PyIm-γ-PyPy-β-PyPy-β-Dp [Her2-1] here?
Answer: Its Kd is 0.02 nM.

Question: And the “inhibition of TBP binding and transcription” value [5]?
Answer: Its value is “effective inhibitor”.

Question: Which results are given for `CN(C)CCCNC(=O)CCNC(=O)c1cc(NC(=O)c2cc(NC(=O)CCNC(=O)c3cc(NC(=O)c4nc(NC(=O)CCCNC(=O)c5cc(NC(=O)c6cc(NC(=O)CCNC(=O)c7cc(NC(=O)c8nccn8C)cn7C)cn6C)cn5C)cn4C)cn3C)cn2C)cn1C` [polyamide 6, ImPy-β-PyPy-γ-ImPy-β-PyPy-β-Dp]?
Answer: Equilibrium association constants, 5′-aTGTTACAt-3′ (5′-TGTTACA-3′; 24° C., pH 7.0, 10 mM Tris.HCl, 10 mM KCl, 10 mM MgCl2, 5 mM CaCl2, mean (SD)): greater than 1×10^9 M^−1; fold higher affinity relative to unlinked analog (5′-TGTTACA-3′; polyamide 6 vs 9, polyamide 3 vs 7): ~1000 fold

Question: For HIV-1 LEF-1 site L2, which Kd (LEF-1 DBD; 1 mM MgCl2) is on record?
Answer: Its Kd is 5.8 nM.

B1: AdML TATA region oligo (dsDNA)
DNA 1: GATCGGGGGCTATAAAAGGGGGTGGG
DNA 2: CCCACCCCCTTTTATAGCCCCCGATC
Question: Does B1 bind (TBP (rhTBP))?
Answer: Result: binds

B2: TBP: TATA-box binding protein, recombinant human TBP (protein, UniProt P20226 1-339, looked up)
TATA-box-binding protein: MDQNNSLPPYAQGLASPQGAMTPGIPIFSPMMPYGTGLTPQPIQNTNSLSILEEQQRQQQQQQQQQQQQQQQQQQQQQQQQQQQQQQQQQQQQQQAVAAAAVQQSTSQQATQGTSGQAPQLFHSQTLTTAPLPGTTPLYPSPMTPMTPITPATPASESSGIVPQLQNIVSTVNLGCKLDLKTIALRARNAEYNPKRFAAVIMRIREPRTTALIFSSGKMVCTGAKSEEQSRLAARKYARVVQKLGFPAKFLDFKIQNMVGSCDVKFPIRLEGLVLTHQQFSSYEPELFPGLIYRMIKPRIVLLIFVSGKVVLTGAKVRAEIYEAFENIYPILKGFRKTT
Question: With B2 as the molecule, how does the Kd (HIV-1 TATA element) read?
Answer: Its Kd is 1 to 3 nM.

From patent publication US6660255B1, “Inhibition of gene transcription by polyamide DNA-binding ligands” (California Institute of Technology, priority 1997, dated 2003)
